The source of these data is article PMC7696216, “Bi-Functional Alginate Oligosaccharide–Polymyxin Conjugates for Improved Treatment of Multidrug-Resistant Gram-Negative Bacterial Infections” (Pharmaceutics, 2020).

For data set [1] the following is noted: in vivo; cited from earlier work.
Another data set deals with E. coli IR57. The format is cell-based, Escherichia coli. The protocol:
(§1) The minimum inhibitory concentration (MIC) of colistin (as sulphate salt) and polymyxin B and their conjugates was determined using the broth microdilution method in MH broth in accordance with standard guidelines. Test organisms were suspended in MH broth (100 µL, 5 × 10^5 colony forming units (CFU)/mL) and incubated in 96-well microtitre plates in serial two-fold dilutions of the test compounds. […] Results were expressed as mode (n = 3). […] Selective activities of the polymyxins and OligoG–polymyxin conjugates were calculated as follows:Selectivity index (SI) = IC50 (μg/mL)/MIC (μg/mL).
(§2) To account for turbidity caused by mucin, resazurin dye solution (30 µL, 0.01% w/v in dH2O) was added to each well and incubated for a further 3 h at 37 °C. Colour changes were observed and recorded.
(§3) To study the antimicrobial efficacy of test compounds under more clinically relevant conditions, the MIC protocol was performed using AS medium instead of MH broth. The plates were incubated with resazurin as described above.

Data set [2] has as its system P. aeruginosa R22. The format is cell-based, Pseudomonas aeruginosa. To be noted: resazurin read-out. As to the method:
as §1, §2

For data set [3] the following is noted: cited from earlier work. As to the method: In a clinical setting, binding of colistin to sputum biomolecules (e.g., mucin) in the airways could negatively impact antibiotic effectiveness and availability. […] A four-fold increase in the MIC of colistin was also reported when the assay was conducted in AS medium instead of MH broth, thought to be caused by bacterial growth disruption, structural modifications of lipopolysaccharides or direct colistin–mucin interactions. Alt ...

Another data set concerns P. aeruginosa NH57388A. The experiment in a line: MIC, broth microdilution. It is filed as cell-based, Pseudomonas aeruginosa. The protocol: as §1, §3
(In general: In broth dilution the organism is exposed to a series of concentrations in liquid medium.)

A further data set has as its system E. coli 5702. The experiment in a line: MIC, broth microdilution. It is filed as cell-based, Escherichia coli. The protocol:
as §1, §3

A short description of data set [4]: Two-compartment static dialysis bag model, diffusion. The format is physicochemical. The following applies: IC 10 mg/mL colistin base in PBS (5 mL), OC PBS (15 mL), 37 °C, 70 rpm, BCA assay, n = 3. As to the method: A two-compartment static dialysis bag model (adapted from Azzopardi et al.) was used to study the PK–PD profile of OligoG–colistin conjugates. First, the ability of the dialysis membrane to control diffusion of test compounds was assessed. […] The aseptically sealed beaker was incubated (37 °C, 70 rpm) for 48 h. Samples were collected at various time points from each compartment and stored at −20 °C prior to analysis of colistin content by BCA assay.

Data set [5] has as its system A. baumannii 7789. The format is cell-based, Acinetobacter baumannii. As to the method: as §1
(§4) In addition, alginate oligomer–colistin conjugates (3 mg/mL) were incubated in PBS at pH 7 containing bacterial alginate lyase (1 and 10 U/mL) at 37 °C for 24 h, before preparing microtitre plates as described above.
as §3

Data set [6] concerns P. aeruginosa R22. The experiment in a line: Biofilm formation assay (CLSM, COMSTAT). The following applies: 24 h. The format is cell-based, Pseudomonas aeruginosa. The protocol: To analyse the effect of test compounds on biofilm formation, solutions of test compounds in MH broth were inoculated (1:10) with P. aeruginosa R22 (standardised to 10^7 CFU/mL) in a Greiner glass-bottomed optical 96-well plate. The plate was then wrapped in parafilm and incubated (37 °C, 20 rpm) for 24 h. The supernatant was carefully removed and replaced with 10% v/v LIVE/DEAD stain in PBS prior to imaging. CLSM of Syto 9 (λex/λem maximum, 480/500 nm) and propidium iodide (λex/λem maximum, 490/635 nm) was performed using a Leica SP5 confocal microscope with ×63 lens (under oil) and a step size of 0.79 µm. Z-stack CLSM images were analysed using COMSTAT image analysis software and results were expressed as mean ± SEM (n = 15).

Data set [7] concerns P. aeruginosa MDR 301. The experiment in a line: Bacterial growth curves (48 h). The format is cell-based, Pseudomonas aeruginosa. To be noted: absorbance 600 nm hourly for 48 h, n = 3. The source says: Results were expressed as mean values (n = 3).
Data set [8] concerns P. aeruginosa MDR 301. It is filed as cell-based, Pseudomonas aeruginosa. As to the method: as §1, §4, §3
The subject of data set [9] is A. baumannii 7789. Nature of the data set: Time-to-kill (TTK) in PK–PD model. It is filed as cell-based, Acinetobacter baumannii. The following applies: 0.25 µg/mL colistin base (colistin sulphate at MIC; OligoG–E–colistin at 2 × MIC), n = 3. The protocol: A modified experimental set-up was used to investigate the concentration- and time-dependent antimicrobial activity of test compounds using a TTK assay (48 h). […] The OC contained MH broth inoculated with A. baumannii 7789 (5 × 10^5 CFU/mL). Samples were collected from the OC (0, 2, 4, 6, 24 and 48 h) and colony counts (CFU/mL) determined using drop counts. Treatments were considered bactericidal if the reduction in viable bacterial counts was ≥3 log10 CFU/mL (equivalent to 99.9% of the initial inoculum) and bacteriostatic if the decrease was <3 log10 CFU/mL [33, 34]. Growth (no test compounds) and sterility (no bacteria) controls were also performed.

For the next data set, the system named is E. coli AIM-1. The experiment in a line: MIC, broth microdilution. The format is cell-based, Escherichia coli. The protocol:
as §1, §4

The test system of a further data set is A. baumannii MDR ACB. It is filed as cell-based, Acinetobacter baumannii. The following applies: resazurin read-out. The protocol: as §1, §2
(The colour change of resazurin is a common sign of viable cells or microbes.)

For a further data set, the system named is K. pneumoniae IR25. It is filed as cell-based, Klebsiella pneumoniae. The following applies: resazurin read-out. The protocol: as §1, §2
The mark [10] stands for this setting: AS (artificial sputum) medium, resazurin read-out.
Setting [11] is: MH broth (Table S7 comparison with AS medium).
Setting [12] is: MH broth + porcine stomach (type II) mucin 0.2% w/v.
[13] abbreviates: MH broth + porcine stomach (type II) mucin 2% w/v.
Setting [14] is: alginate lyase in MH broth, 0 U/mL.
Setting [15] is: alginate lyase in MH broth, 1 U/mL.
The mark [16] stands for this setting: alginate lyase in MH broth, 10 U/mL.
The mark [17] stands for this setting: pre-incubation with alginate lyase 0 U/mL (3 mg/mL in PBS pH 7, 37 °C, 24 h), then MIC in MH broth.
The mark [18] stands for this setting: pre-incubation with alginate lyase 1 U/mL (3 mg/mL in PBS pH 7, 37 °C, 24 h), then MIC in MH broth.
Where [19] appears, read: pre-incubation with alginate lyase 10 U/mL (3 mg/mL in PBS pH 7, 37 °C, 24 h), then MIC in MH broth.

Read-outs that look alike come from different tables or passages of the source. Where only a bound is given, the exact number is not on record here.

For colistimethate sodium, the “plasma colistin concentration at steady-state” value in data set [1] was 0.5 to 4 µg/mL.
On to colistin sulphate, for which the MIC in the data set on E. coli IR57 (setting [10]) was 0.125 μg/mL Drug Base; against E. coli IR57 (setting [11]), 0.125 μg/mL Drug Base; in the data set on E. coli IR57 (MH broth + porcine stomach (type II) mucin 0.2% w/v, resazurin read-out) it was 1 μg/mL Drug Base; with E. coli IR57 (MH broth + porcine stomach (type II) mucin 2% w/v, resazurin read-out), 2 μg/mL Drug Base; with E. coli IR57 (MH broth, mucin 0%, resazurin read-out), 0.125 μg/mL Drug Base; with P. aeruginosa R22 [2] (setting [12]), 2 μg/mL Drug Base. Also, the MIC is on record as 16 μg/mL Drug Base with P. aeruginosa R22 [2] (setting [13]); 0.5 μg/mL Drug Base in the data set with P. aeruginosa R22 [2] (MH broth, mucin 0%); 1 μg/mL Drug Base with P. aeruginosa NH57388A (setting [10]); 0.25 μg/mL Drug Base against P. aeruginosa NH57388A (setting [11]); 0.125 μg/mL Drug Base in the data set with E. coli 5702 (setting [10]); 0.031 μg/mL Drug Base against E. coli 5702 (setting [11]). In addition, the MIC with A. baumannii 7789 [5] (setting [10]) was found to be 1 μg/mL Drug Base; against A. baumannii 7789 [5] (setting [11]) it was 0.25 μg/mL Drug Base; against A. baumannii 7789 [5] (setting [14]), 0.002 μg/mL Drug Base; in the data set on A. baumannii 7789 [5] (setting [15]) it was 0.004 μg/mL Drug Base; in the data set on A. baumannii 7789 [5] (setting [16]), 0.004 μg/mL Drug Base; against A. baumannii 7789 [5] (setting [17]), 0.002 μg/mL Drug Base. Moreover, the MIC against A. baumannii 7789 [5] (setting [18]) came out at 0.002 μg/mL Drug Base; in the data set with A. baumannii 7789 [5] (setting [19]), 0.002 μg/mL Drug Base; with P. aeruginosa MDR 301 [8] (setting [10]) it was 2 μg/mL Drug Base; against P. aeruginosa MDR 301 [8] (setting [11]) it was 0.5 μg/mL Drug Base; against P. aeruginosa MDR 301 [8] (setting [14]), 0.063 μg/mL Drug Base; with P. aeruginosa MDR 301 [8] (setting [15]), 0.063 μg/mL Drug Base. Moreover, the MIC is on record as 0.25 μg/mL Drug Base in the data set on P. aeruginosa MDR 301 [8] (setting [16]); 0.063 μg/mL Drug Base against P. aeruginosa MDR 301 [8] (setting [17]); 0.063 μg/mL Drug Base against P. aeruginosa MDR 301 [8] (setting [18]); 0.125 μg/mL Drug Base against P. aeruginosa MDR 301 [8] (setting [19]); 0.00006 μg/mL Drug Base against E. coli AIM-1 (setting [14]); 0.00006 μg/mL Drug Base against E. coli AIM-1 (setting [15]). In addition, the MIC is given as 0.0002 μg/mL Drug Base in the data set on E. coli AIM-1 (setting [16]); below 0.008 μg/mL Drug Base in the data set on E. coli AIM-1 (broth microdilution, MH broth, 5 × 10^5 CFU/mL, 16–20 h, mode (n = 3)); 0.00006 μg/mL Drug Base against E. coli AIM-1 (setting [17]); 0.001 μg/mL Drug Base in the data set with E. coli AIM-1 (setting [18]); 0.0002 μg/mL Drug Base against E. coli AIM-1 (setting [19]); 1 μg/mL Drug Base in the data set with A. baumannii MDR ACB (setting [12]). The MIC came out at 16 μg/mL Drug Base in the data set with A. baumannii MDR ACB (setting [13]); 0.5 μg/mL Drug Base in the data set on A. baumannii MDR ACB (MH broth, mucin 0%); 1 μg/mL Drug Base with K. pneumoniae IR25 (setting [12]); 64 μg/mL Drug Base in the data set on K. pneumoniae IR25 (setting [13]). Also, in data set [3], the “increase in MIC values when mucin was added to the bacterial culture medium” value was above 100 fold. For the same substance, the “time at which 1 mg/mL in the OC was reached” value in data set [4] came to 2.83 h. Besides, the “biofilm biomass compared to untreated control” value in the data set on P. aeruginosa R22 [6] (2 × MIC (colistin sulphate up to 2 × MIC), n = 15) was “no significant change”. Moreover, in the data set on P. aeruginosa R22 [6] (conjugates ≥MIC, colistin sulphate MIC, n = 15, p < 0.05), the biofilm roughness entry is given as “significantly increased”. Further, the “concentration required for growth inhibition (up to >48 h)” value with P. aeruginosa MDR 301 [7] is recorded as at least 8 × MIC. In the data set with A. baumannii 7789 [9], the “reduction in viable bacterial counts after 4 h” value is on record as below 3 log10 CFU/mL.
